According to patent US20100311782A1, “SUBSTITUTED PIPERIDINYLPROPANOIC ACID COMPOUNDS AND METHODS OF THEIR USE” (priority 2009, published 2010):

Legend:
[1] = biological target: T1, cloned human μ opioid receptor (Homo sapiens, UniProt P35372); assay: Inhibition of agonist (loperamide)-stimulated [35S]GTPγS binding; type: biochemical; settings: in vitro studies
T1 construct: expressed in transfected cells
Protocol: The potencies of the antagonists were assessed by their abilities to inhibit agonist-stimulated [^35S]GTPγS binding to membranes containing the cloned human μ, κ, or δ opioid receptors. The agonist used for the μ opioid receptor was loperamide.
To determine the IC50 value, which was the concentration to give half-maximal inhibition of agonist-stimulated [^35S]GTPγS binding, the amount of [^35S]GTPγS bound in the presence of a fixed concentration of agonist and various concentrations of antagonist was measured. The fixed concentration of agonist was the EC80 for the agonist, which was the concentration to give 80% of the relative maximum stimulation of [^35S]GTPγS binding. The IC50 value was determined from a best nonlinear regression fit of the data to the following equation,
where Y is the amount of [^35S]GTPγS bound at each concentration of antagonist, Bottom is the calculated amount of [^35S]GTPγS bound in the presence of an infinite concentration of antagonist, Top is the calculated amount of [^35S]GTPγS bound in the absence of added antagonist, X is the logarithm of the concentration of antagonist, and LogIC50 is the logarithm of the concentration of antagonist where the amount of [^35S]GTPγS bound is halfway between Bottom and Top. The nonlinear regression fit was performed using GraphPad Prism® version 3.00 for Windows (GraphPad Software, San Diego, Calif.).

[2] = biological target: T1, cloned human μ opioid receptor; assay: Receptor binding, [3H]diprenorphine displacement, mu opioid receptor; settings: [3H]diprenorphine, cloned human mu opioid receptor; read-out: MOR Ki
[3] = biological target: T2, cloned human δ opioid receptor (Homo sapiens, UniProt P41143); assay: Receptor binding, [3H]diprenorphine displacement, delta opioid receptor; settings: read-out: DOR Ki
T2 construct: expressed in transfected cells
T2 sequence (P41143 whole entry): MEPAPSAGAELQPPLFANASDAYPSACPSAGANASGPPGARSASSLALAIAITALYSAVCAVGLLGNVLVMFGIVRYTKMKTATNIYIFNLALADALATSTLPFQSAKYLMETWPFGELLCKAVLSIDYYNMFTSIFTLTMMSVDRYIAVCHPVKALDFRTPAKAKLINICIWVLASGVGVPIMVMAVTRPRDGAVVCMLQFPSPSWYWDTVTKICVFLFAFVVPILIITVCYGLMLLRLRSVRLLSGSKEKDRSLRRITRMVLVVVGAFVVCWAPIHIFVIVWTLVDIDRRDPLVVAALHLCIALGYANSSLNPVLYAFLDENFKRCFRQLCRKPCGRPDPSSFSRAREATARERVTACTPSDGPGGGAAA

[4] = biological target: T3, cloned human κ opioid receptor (Homo sapiens, UniProt P41145); assay: Receptor binding, [3H]diprenorphine displacement, kappa opioid receptor; settings: [3H]diprenorphine, cloned human kappa opioid receptor; read-out: KOR Ki
T3 construct: expressed in transfected cells
T3 sequence (P41145 whole entry): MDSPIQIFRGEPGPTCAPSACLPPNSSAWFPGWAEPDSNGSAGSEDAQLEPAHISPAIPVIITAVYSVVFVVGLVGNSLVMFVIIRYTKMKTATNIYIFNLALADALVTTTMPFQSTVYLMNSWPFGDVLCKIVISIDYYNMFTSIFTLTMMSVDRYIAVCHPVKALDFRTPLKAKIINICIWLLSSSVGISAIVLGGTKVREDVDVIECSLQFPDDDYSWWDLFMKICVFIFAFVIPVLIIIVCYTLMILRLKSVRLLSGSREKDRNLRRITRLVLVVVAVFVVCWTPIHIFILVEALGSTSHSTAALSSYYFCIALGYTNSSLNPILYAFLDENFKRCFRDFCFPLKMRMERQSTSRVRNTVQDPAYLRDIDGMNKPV

T1 sequence (P35372 whole entry): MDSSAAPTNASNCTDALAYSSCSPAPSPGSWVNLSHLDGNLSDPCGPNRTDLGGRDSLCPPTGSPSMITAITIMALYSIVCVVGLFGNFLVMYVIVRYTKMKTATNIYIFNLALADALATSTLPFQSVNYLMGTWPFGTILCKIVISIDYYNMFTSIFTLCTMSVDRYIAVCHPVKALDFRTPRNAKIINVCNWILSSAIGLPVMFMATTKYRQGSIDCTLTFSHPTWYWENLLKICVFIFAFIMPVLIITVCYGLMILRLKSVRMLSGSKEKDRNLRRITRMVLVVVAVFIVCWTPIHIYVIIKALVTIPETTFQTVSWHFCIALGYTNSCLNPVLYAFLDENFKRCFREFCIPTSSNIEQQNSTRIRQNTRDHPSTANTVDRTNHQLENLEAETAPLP

C[C@H]1CN(C[C@H](Cc2ccccc2)C(=O)O)CC[C@@]1(C)c1cccc(C(=O)O)c1 [Example C-1, 3-[1-(2S-Carboxy-3-phenyl-propyl)-3R,4R-dimethyl-piperidin-4-yl]-benzoic acid, reference compound]
inhibition of agonist-stimulated [35S]GTPγS binding relative to the other test compounds [1]: significantly reduced inhibition | Ki [2]: 2.29 µM | Ki [3]: > 10 µM | Ki [4]: > 10 µM
